{"source": "patent US20120196751A1", "about": "“ANTHRAQUINONE CONTAINING PREPARATIONS/LIGNIN FORMULATIONS” (MARRONE BIO INNOVATIONS, INC., priority 2011, published 2012)", "tested_on": "Phytophthora capsici", "assay": "Efficacy of WSP and WDG in controlling Phytophthora capsici leaf blight on tomato plants (Example VI)", "assay_type": "in vivo", "conditions": "1.24 g/L; tomato cv Roma; rated 7 days post inoculation", "method": "Reynoutria sachalinensis extract was formulated as WSP and as WDG. Both formulations were evaluated for their efficacy in controlling Phytophthora leaf blight on tomato. The cv “Roma” was planted in greenhouse till two true leaf stage. The isolate of P. capsici was grown on lima bean media (150 g lima bean was autoclaved in 500 ml water at 121° C. for 0.5 h and filtered through two layers of cheese cloth to remove seed coats. 20 g of agar was added to the filtrate and increase the volume to 1000 ml. The media was autoclaved at 121° C. for 15 min) for 7 days and the sporangia were washed off with sterile water. The sporangia suspension was incubated at room temperature (about 25° C.) for 1-2 h to release zoospores. The suspension was adjusted to 1.0×10^5 spores/ml. There were three single plant replications per treatments. For each treatment, 3 ml treatment/plant was applied with hand held sprayer. After the treatments dried up in a container for incubation, 10 ml of spore suspension was applied uniformly onto all the plants. The container was sealed to maintain high moisture and the plants were incubated at 25° C. in darkness for 3 days. Disease was rated 7 days post inoculation."}
{"smiles": "COCC(=O)N(c1c(C)cccc1C)[C@H](C)C(=O)OC", "note": "[mefenoxam (Ridomil), mefenoxam]", "values": [{"measurement": "% Control", "value": 95.9, "unit": "%"}, {"measurement": "Severity (%, mean)", "value": 2.3, "unit": "%"}]}
